Data from article PMC9250534, “Synthesis and direct assay of large macrocycle diversities by combinatorial late-stage modification at picomole scale” (Nature Communications, 2022).
Numbered stars: 1 amine (or outer) side, 2 acyl side, 3 side chain; on linkers, the order of the positions; unused ones are H or OH. Bridge positions count the residues as written; N and C are the ends. Square brackets hold non-standard residues; d marks the D form. Peptide text beside a SMILES is read from it. * marks the point of attachment. ξ: configuration not given here. ξPro(4-NHCO(5-Cl-2-thienyl)) = O=C(NC1CNC(C(=O)O)C1)c1ccc(Cl)s1; Pyrazinoyl(5-oxo-4H) = O=C(c1c[nH]c(=O)cn1)*; Benzoyl(3-CF3) = O=C(c1cccc(C(F)(F)F)c1)*; Tetrahydropyran4carbonyl = O=C(C1CCOCC1)*; Nicotinoyl(6-OMe) = COc1ccc(C(=O)*)cn1; Benzoyl(4-Cl) = O=C(c1ccc(Cl)cc1)*; Pyrazinecarbonyl = O=C(c1cnccn1)*; Cysteamide = C(CS[*:3])N[*:1]; Me3Gly = C[N+](C)(C)CC(=O)*; Isovaleryl = CC(C)CC(=O)*; MeOSuc = COC(=O)CCC(=O)*; Api = NC1(C(=O)O)CCNCC1; Dap = NC[C@H](N)C(=O)O; Mpa = O=C(O)CCS

Biological target: MDM2 (Homo sapiens, UniProt Q00987)
Experiment: MDM2 binding screen: displacement of fluorescent p53 peptide probe FP53 (fluorescence polarization)
Conditions: for fraction fluorescent probe displaced, Screen: initial screen; for fraction fluorescent probe displaced, Screen / fraction fluorescent probe displaced, Replicate: crude macrocycle reactions
Protocol: We screened Library 2 in 384-microwell plates by dispensing the target protein MDM2 and reporter peptide into the wells containing the macrocycle reactions.
The products were screened for displacement of a p53-based fluorescent peptide from human MDM2. Final macrocycle concentrations were 10 µM. For each macrocycle, the MDM2 binding was measured once.
One fluorescence anisotropy reading was taken with a Tecan Infinite F200 Pro fluorescence plate reader (excitation at 485 nm, emission at 535 nm) at 25 °C. Data was collected and exported using the Tecan Infinite M200 Pro instrument software. The data was analyzed by Excel (version 2016).

[1] = 10 µM macrocycle concentration, crude acylated macrocycle (scaffold Mpa-AA1-AA2-AA3 x carboxylic acid), p53-based fluorescent peptide, human MDM2

Sequence of MDM2 (Q00987 whole entry): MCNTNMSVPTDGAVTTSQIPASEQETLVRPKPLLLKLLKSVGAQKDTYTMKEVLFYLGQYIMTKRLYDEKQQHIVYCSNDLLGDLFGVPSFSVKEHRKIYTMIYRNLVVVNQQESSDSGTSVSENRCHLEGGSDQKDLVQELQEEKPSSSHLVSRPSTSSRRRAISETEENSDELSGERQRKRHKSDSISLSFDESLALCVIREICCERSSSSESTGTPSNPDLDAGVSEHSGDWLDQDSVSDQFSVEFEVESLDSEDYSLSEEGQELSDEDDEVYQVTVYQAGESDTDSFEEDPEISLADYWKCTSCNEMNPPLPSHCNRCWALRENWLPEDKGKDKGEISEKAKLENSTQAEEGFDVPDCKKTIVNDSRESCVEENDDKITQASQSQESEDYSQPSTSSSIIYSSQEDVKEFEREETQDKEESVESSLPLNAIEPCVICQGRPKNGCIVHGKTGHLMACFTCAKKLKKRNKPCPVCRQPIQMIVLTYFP

O=C1CCSSCCNC(=O)C2CN(C(=O)c3ccc(Cl)s3)CCN2C(=O)C2CCCN(C2)C(=O)C(Cc2c[nH]c3ccccc23)N1 (stereo not drawn) [X W B4 D7 Acid 14]
fraction fluorescent probe displaced, Screen (Acid 14): 0.34 | fraction fluorescent probe displaced, Replicate (Acid 14, replicate): 0.33

O=C(NC[C@@H]1NC(=O)[C@@H]2CCCN2C(=O)CCSSCCNC(=O)[C@H](Cc2ccccc2)NC1=O)c1cnccn1 [X-B1-D3-F + A2] ([Mpa]P[Dap](Pyrazinecarbonyl)F-Cysteamide; disulfide 1-C)
fraction fluorescent probe displaced [1]: 0.08617

O=C1NC(Cc2c[nH]c3ccccc23)C(=O)N2CCN(C(=O)c3ccc(Cl)s3)CC2C(=O)NCCSSCCC(=O)N2CCCC1C2 (stereo not drawn) [X B4 W D7 Acid 14]
fraction fluorescent probe displaced, Screen (Acid 14): 0.14 | fraction fluorescent probe displaced, Replicate (Acid 14, replicate): 0.25

COC(=O)CCC(=O)NC[C@@H]1NC(=O)[C@@H]2CCCN2C(=O)CCSSCCNC(=O)[C@H](Cc2c[nH]c3ccccc23)NC1=O [X-B1-D3-W + A93] ([Mpa]P[Dap](MeOSuc)W-Cysteamide; disulfide 1-C)
fraction fluorescent probe displaced [1]: 0.1339

O=C1NC(Cc2c[nH]c3ccccc23)C(=O)N2CCCC2C(=O)NCCSSCCC(=O)N2CCN(C(=O)C=Cc3ccccc3)CC12 (stereo not drawn) [X D7 W B1 Acid 91]
fraction fluorescent probe displaced, Screen (Acid 91): -0.0241 | fraction fluorescent probe displaced, Replicate (Acid 91, replicate): -0.00827

O=C1CCSSCCNC(=O)[C@H](Cc2c[nH]c3ccccc23)NC(=O)c2cccc(c2)CNC(=O)C2(CCN(C(=O)c3ccc(Cl)cc3)CC2)N1 [X D6 B5 W Acid 25]
fraction fluorescent probe displaced, Screen (Acid 25): 0.25 | fraction fluorescent probe displaced, Replicate (Acid 25, replicate): 0.22

O=C(NC1CC2C(=O)NC(Cc3ccccc3)C(=O)N3CCCC3C(=O)NCCSSCCC(=O)N2C1)c1ccc(Cl)s1 (stereo not drawn) [X D5 F B1 Acid 14] ([Mpa][ξPro(4-NHCO(5-Cl-2-thienyl))]FP-Cysteamide; disulfide 1-C; configuration not given here)
fraction fluorescent probe displaced, Screen (Acid 14): 0.28 | fraction fluorescent probe displaced, Replicate (Acid 14, replicate): 0.0465

O=C(NC[C@@H]1NC(=O)[C@@H]2CCCN2C(=O)CCSSCCNC(=O)[C@H](Cc2c[nH]c3ccccc23)NC1=O)c1cccc(C(F)(F)F)c1 [X-B1-D3-W + A18] ([Mpa]P[Dap](Benzoyl(3-CF3))W-Cysteamide; disulfide 1-C)
fraction fluorescent probe displaced [1]: -0.006211

C[N+](C)(C)CC(=O)NC[C@@H]1NC(=O)[C@@H]2CCCN2C(=O)CCSSCCNC(=O)[C@H](Cc2c[nH]c3ccccc23)NC1=O [X-B1-D3-W + A92] ([Mpa]P[Dap](Me3Gly)W-Cysteamide; disulfide 1-C)
fraction fluorescent probe displaced [1]: -0.1286

O=C(C=Cc1ccccc1)NC1CC2C(=O)NCCSSCCC(=O)NCCC(=O)NC(Cc3ccccc3)C(=O)N2C1 (stereo not drawn) [X B2 F D5 Acid 91]
fraction fluorescent probe displaced, Screen (Acid 91): 0.00268 | fraction fluorescent probe displaced, Replicate (Acid 91, replicate): -0.08

O=C1CCNC(=O)C(CNC(=O)c2ccc(Cl)s2)NC(=O)C(Cc2ccccc2)NC(=O)CCSSCCN1 (stereo not drawn) [X F D3 B2 Acid 14]
fraction fluorescent probe displaced, Screen (Acid 14): 0.053 | fraction fluorescent probe displaced, Replicate (Acid 14, replicate): 0.0465

O=C1CCSSCCNC(=O)C(Cc2ccccc2)NC(=O)C2CC(NC(=O)c3ccc(Cl)cc3)CN2C(=O)CCN1 (stereo not drawn) [X B2 D5 F Acid 25]
fraction fluorescent probe displaced, Screen (Acid 25): 0.16 | fraction fluorescent probe displaced, Replicate (Acid 25, replicate): 0.05

COc1ccc(C(=O)NC[C@@H]2NC(=O)[C@@H]3CCCN3C(=O)CCSSCCNC(=O)[C@H](Cc3ccccc3)NC2=O)cn1 [X-B1-D3-F + A10] ([Mpa]P[Dap](Nicotinoyl(6-OMe))F-Cysteamide; disulfide 1-C)
fraction fluorescent probe displaced [1]: 0.01535

O=C1CCSSCCNC(=O)C2(CCN(C(=O)/C=C/c3ccccc3)CC2)NC(=O)c2cccc(c2)CNC(=O)[C@H](Cc2ccccc2)N1 [X F B5 D6 Acid 91]
fraction fluorescent probe displaced, Screen (Acid 91): -0.08 | fraction fluorescent probe displaced, Replicate (Acid 91, replicate): -0.00827

O=C1NC(Cc2ccccc2)C(=O)N2CCN(C(=O)c3ccc(Cl)cc3)CC2C(=O)NCCSSCCC(=O)N2CCCC1C2 (stereo not drawn) [X B4 F D7 Acid 25]
fraction fluorescent probe displaced, Screen (Acid 25): 0.09 | fraction fluorescent probe displaced, Replicate (Acid 25, replicate): 0.10

O=C1CCSSCCNC(=O)[C@H](Cc2c[nH]c3ccccc23)NC(=O)C2(CCN(C(=O)c3ccc(Cl)cc3)CC2)NC(=O)c2cccc(c2)CN1 [X B5 D6 W Acid 25]
fraction fluorescent probe displaced, Screen (Acid 25): 0.12 | fraction fluorescent probe displaced, Replicate (Acid 25, replicate): 0.15

O=C1N[C@@H](Cc2c[nH]c3ccccc23)C(=O)NC2(CCN(C(=O)c3ccc(Cl)s3)CC2)C(=O)NCCSSCCC(=O)N2CCC[C@H]1C2 [X B4 W D6 Acid 14]
fraction fluorescent probe displaced, Screen (Acid 14): 0.08 | fraction fluorescent probe displaced, Replicate (Acid 14, replicate): 0.22

O=C(/C=C/c1ccccc1)NC[C@@H]1NC(=O)[C@H](Cc2c[nH]c3ccccc23)NC(=O)c2cccc(c2)CNC(=O)CCSSCCNC1=O [X B5 W D3 Acid 91]
fraction fluorescent probe displaced, Screen (Acid 91): 0.16 | fraction fluorescent probe displaced, Replicate (Acid 91, replicate): 0.12

O=C(NC[C@@H]1NC(=O)[C@@H]2CCCN2C(=O)CCSSCCNC(=O)[C@H](Cc2ccccc2)NC1=O)C1CCOCC1 [X-B1-D3-F + A44] ([Mpa]P[Dap](Tetrahydropyran4carbonyl)F-Cysteamide; disulfide 1-C)
fraction fluorescent probe displaced [1]: 0.01122

O=C1CCSSCCNC(=O)C2CC(NC(=O)c3ccc(Cl)cc3)CN2C(=O)CCNC(=O)C(Cc2ccccc2)N1 (stereo not drawn) [X F B2 D5 Acid 25]
fraction fluorescent probe displaced, Screen (Acid 25): 0.12 | fraction fluorescent probe displaced, Replicate (Acid 25, replicate): 0.07

O=C(/C=C/c1ccccc1)NC[C@@H]1NC(=O)[C@H](Cc2c[nH]c3ccccc23)NC(=O)CCSSCCNC(=O)[C@H]2CCCN(C2)C1=O [X W D3 B4 Acid 91]
fraction fluorescent probe displaced, Screen (Acid 91): 0.35 | fraction fluorescent probe displaced, Replicate (Acid 91, replicate): 0.07

O=C1CCSSCCNC(=O)C2CN(C(=O)c3ccc(Cl)s3)CCN2C(=O)CCNC(=O)C(Cc2c[nH]c3ccccc23)N1 (mixture of isomers) [X W B2 D7 Acid 14]
fraction fluorescent probe displaced, Screen (Acid 14): 0.08 | fraction fluorescent probe displaced, Replicate (Acid 14, replicate): 0.17

O=C1NC2(CCN(C(=O)c3ccc(Cl)cc3)CC2)C(=O)NCCSSCCC(=O)N2CCC[C@H]2C(=O)N[C@H]1Cc1ccccc1 [X B1 F D6 Acid 25] ([Mpa]PF[Api](Benzoyl(4-Cl))-Cysteamide; disulfide 1-C)
fraction fluorescent probe displaced, Screen (Acid 25): 0.09 | fraction fluorescent probe displaced, Replicate (Acid 25, replicate): 0.15

O=C1CCSSCCNC(=O)[C@H](Cc2c[nH]c3ccccc23)NC(=O)[C@H]2CCCN(C2)C(=O)[C@H](CNC(=O)c2ccc(Cl)cc2)N1 [X D3 B4 W Acid 25]
fraction fluorescent probe displaced, Screen (Acid 25): 0.25 | fraction fluorescent probe displaced, Replicate (Acid 25, replicate): 0.20

COc1ccc(C(=O)NC[C@@H]2NC(=O)[C@@H]3CCCN3C(=O)CCSSCCNC(=O)[C@H](Cc3c[nH]c4ccccc34)NC2=O)cn1 [X-B1-D3-W + A10] ([Mpa]P[Dap](Nicotinoyl(6-OMe))W-Cysteamide; disulfide 1-C)
fraction fluorescent probe displaced [1]: 0.2362

O=C1CCSSCCNC(=O)c2cccc(c2)CNC(=O)[C@H](CNC(=O)c2ccc(Cl)s2)NC(=O)[C@H](Cc2ccccc2)N1 [X F D3 B5 Acid 14]
fraction fluorescent probe displaced, Screen (Acid 14): 0.0241 | fraction fluorescent probe displaced, Replicate (Acid 14, replicate): -0.03

O=C(NC1CC2C(=O)NC(Cc3c[nH]c4ccccc34)C(=O)NCCSSCCC(=O)N3CCCC3C(=O)N2C1)c1ccc(Cl)s1 (stereo not drawn) [X B1 D5 W Acid 14] ([Mpa]P[ξPro(4-NHCO(5-Cl-2-thienyl))]W-Cysteamide; disulfide 1-C; configuration not given here)
fraction fluorescent probe displaced, Screen (Acid 14): 0.28 | fraction fluorescent probe displaced, Replicate (Acid 14, replicate): 0.0465

O=C1CCNC(=O)C2CN(C(=O)c3ccc(Cl)s3)CCN2C(=O)CCSSCCNC(=O)C(Cc2c[nH]c3ccccc23)N1 (stereo not drawn) [X D7 B2 W Acid 14]
fraction fluorescent probe displaced, Screen (Acid 14): 0.11 | fraction fluorescent probe displaced, Replicate (Acid 14, replicate): 0.12

O=C1NC2(CCN(C(=O)c3ccc(Cl)cc3)CC2)C(=O)N[C@@H](Cc2c[nH]c3ccccc23)C(=O)NCCSSCCC(=O)N2CCC[C@H]1C2 [X B4 D6 W Acid 25]
fraction fluorescent probe displaced, Screen (Acid 25): 0.38 | fraction fluorescent probe displaced, Replicate (Acid 25, replicate): 0.25

CC(C)CC(=O)NC[C@@H]1NC(=O)[C@@H]2CCCN2C(=O)CCSSCCNC(=O)[C@H](Cc2ccccc2)NC1=O [X-B1-D3-F + A8] ([Mpa]P[Dap](Isovaleryl)F-Cysteamide; disulfide 1-C)
fraction fluorescent probe displaced [1]: -0.02974

O=C1CCSSCCNC(=O)[C@H](CNC(=O)c2ccc(Cl)cc2)NC(=O)[C@H](Cc2c[nH]c3ccccc23)NC(=O)CCN1 [X B2 W D3 Acid 25]
fraction fluorescent probe displaced, Screen (Acid 25): 0.19 | fraction fluorescent probe displaced, Replicate (Acid 25, replicate): 0.22

O=C1CCSSCCNC(=O)C2CN(C(=O)c3ccc(Cl)cc3)CCN2C(=O)CCNC(=O)[C@H](Cc2ccccc2)N1 (stereo partly drawn) [X F B2 D7 Acid 25]
fraction fluorescent probe displaced, Screen (Acid 25): 0.12 | fraction fluorescent probe displaced, Replicate (Acid 25, replicate): 0.10

O=C1CCSSCCNC(=O)C(Cc2c[nH]c3ccccc23)NC(=O)C2CCCN(C2)C(=O)C2(CCN(C(=O)C=Cc3ccccc3)CC2)N1 (stereo not drawn) [X D6 B4 W Acid 91]
fraction fluorescent probe displaced, Screen (Acid 91): 0.11 | fraction fluorescent probe displaced, Replicate (Acid 91, replicate): 0.0168

O=C1NC2(CCN(C(=O)c3ccc(Cl)s3)CC2)C(=O)N[C@@H](Cc2ccccc2)C(=O)NCCSSCCC(=O)N2CCC[C@H]1C2 [X B4 D6 F + Acid 14]
fraction fluorescent probe displaced (crude reaction of macrocycle scaffold with Acid 14, (initial screen)): 0.25 | fraction fluorescent probe displaced (crude reaction of macrocycle scaffold with Acid 14, replicate): 0.12

O=C(C=Cc1ccccc1)NC1CC2C(=O)N3CCCC(C3)C(=O)NCCSSCCC(=O)NC(Cc3c[nH]c4ccccc34)C(=O)N2C1 (stereo not drawn) [X W D5 B4 Acid 91]
fraction fluorescent probe displaced, Screen (Acid 91): 0.16 | fraction fluorescent probe displaced, Replicate (Acid 91, replicate): 0.09

O=C(NC[C@@H]1NC(=O)[C@@H]2CCCN2C(=O)CCSSCCNC(=O)[C@H](Cc2c[nH]c3ccccc23)NC1=O)c1c[nH]c(=O)cn1 [X-B1-D3-W + A9] ([Mpa]P[Dap](Pyrazinoyl(5-oxo-4H))W-Cysteamide; disulfide 1-C)
fraction fluorescent probe displaced [1]: 0.06006
